{"source": "patent US6884415B2", "about": "“Antioxidation food product, antioxidation preparation and antioxidation method” (Otsuka Pharmaceutical Co., Ltd., priority 1993, dated 2005)", "molecular_target": "T1, MPO (myeloperoxidase) (Homo sapiens, UniProt P05164)", "T1 sequence (P05164 49-745)": "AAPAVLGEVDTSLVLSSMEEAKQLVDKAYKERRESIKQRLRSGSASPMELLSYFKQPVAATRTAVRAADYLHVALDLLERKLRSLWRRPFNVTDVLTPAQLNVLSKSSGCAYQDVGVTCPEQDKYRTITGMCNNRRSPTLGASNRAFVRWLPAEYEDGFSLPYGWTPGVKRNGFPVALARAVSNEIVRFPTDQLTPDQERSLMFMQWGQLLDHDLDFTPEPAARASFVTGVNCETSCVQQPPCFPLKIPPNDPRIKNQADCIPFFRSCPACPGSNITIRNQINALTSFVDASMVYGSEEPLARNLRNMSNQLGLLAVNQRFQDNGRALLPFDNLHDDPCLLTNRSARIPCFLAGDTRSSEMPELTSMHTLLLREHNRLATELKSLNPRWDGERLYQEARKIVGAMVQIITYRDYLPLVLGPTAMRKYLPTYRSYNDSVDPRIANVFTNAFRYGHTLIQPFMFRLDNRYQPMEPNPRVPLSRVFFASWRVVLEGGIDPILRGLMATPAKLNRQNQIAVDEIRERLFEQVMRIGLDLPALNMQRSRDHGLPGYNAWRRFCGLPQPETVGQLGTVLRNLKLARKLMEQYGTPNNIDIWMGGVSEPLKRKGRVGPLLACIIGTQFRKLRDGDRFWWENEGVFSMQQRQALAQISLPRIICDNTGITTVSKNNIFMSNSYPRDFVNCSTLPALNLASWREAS", "assay": "MPO (myeloperoxidase) activity inhibition", "format": "biochemical", "conditions": "MPO purified enzyme, pH 5.4, 25° C.", "protocol": "To 2.9 ml of a 50 mM phosphate buffer (pH: 5.4) containing 0.1% hydrogen peroxide and 1.03 mM o-dianisidine, 50 μl of a test solution and 50 μl of a MPO purified enzyme (1.24 units/ml) were added and, after incubating in a cuvet at 25° C., measuring a change in absorbance (λ: 450 nm) was measured for 5 minutes. As a blank, 50 μl of a 50 mM phosphate buffer (pH: 5.4) was used.\nAs the test solution, a tea extract solution obtained by extracting a green tea with hot water and a solution obtained by measuring the concentration of Mn in the tea extract solution and adding MnCl2 in an APT broth so that the concentration of Mn in the medium may be the same as that of the tea extract solution were used. Then, […]\nTherefore, it was examined whether the component contained in the tea other than Mn is connected with the MPO activity inhibition or not. That is, according to the same manner as that described above, the MPO inhibition activity was examined using a purified catechin as the component other than Mn.", "data": [{"substance": "catechin", "values": [{"measurement": "concentration at which the MPO inhibition effect is exhibited", "value": "≥ 1.5", "unit": "µg/mL"}]}]}
